Assay results as given in the NIST ThermoML archive (doi:10.1016/j.jct.2007.03.008).
± gives the expanded uncertainty stated by the source.

Legend:
[1] = refractive index (Na D-line) (dimensionless); details: 298.15 K; 101.33 kPa; Liquid; Standard Abbe refractometry
[2] = Liquid; for mass density: 101.33 kPa

SMILES	refractive index [1]	mass density ([2]; 298.15 K) [kg/m3]	vapor or sublimation pressure ([2]; 298.15 K) [kPa]	vapor or sublimation pressure ([2]; 308.15 K) [kPa]	vapor or sublimation pressure ([2]; 318.15 K) [kPa]	mass density ([2]; 298.15 K, Vibrating tube method) [kg/m3]
ClCCCCl [1,3-dichloropropane]	1.4459 ± 0.0007	1181.4 ± 0.3	2.75 ± 0.16	4.48 ± 0.17	6.87 ± 0.18	
ClCCCCCl [1,4-dichlorobutane]	1.4519 ± 0.0007	1132.8 ± 0.2	0.99 ± 0.16	1.39 ± 0.16	2.13 ± 0.16	
CCCCCl [1-chlorobutane]	1.3991 ± 0.0007		13.7 ± 0.4	21.32 ± 0.44	31.86 ± 0.51	880.9 ± 0.1
O=C1CCCC1 [cyclopentanone]	1.4347 ± 0.0007	945.3 ± 0.2	1.71 ± 0.32	2.8 ± 0.33	4.4 ± 0.34	
